From US10604535B2, “Compounds, compositions and methods” (Denali Therapeutics Inc., priority 2016, dated 2020) come the findings set out here.

pIC50: −log10 of the molar value.

For the first assay, the system named is FADD-deficient Jurkat cells. Briefly: Cellular necroptosis assay (human TNFα-induced necrosis, CellTiter-Glo). It counts as cell-based. The settings on record: Homo sapiens, Jurkat, 48 h, TNFα 10 ng/mL, read-out: Cell IC50. For orientation: In ATP-based viability assays light output follows the ATP content of the culture.
`C[C@H]1Oc2cccnc2N(C)C(=O)[C@H]1NC(=O)c1nnc(C(F)(F)c2ccccc2)o1` [Example 221, 5-(difluoro(phenyl)methyl)-N-((2R,3S)-2,5-dimethyl-4-oxo-2,3,4,5-tetrahydropyrido[3,2-b][1,4]oxazepin-3-yl)-1,3,4-oxadiazole-2-carboxamide]: the pIC50 (commonly the IC50 on a negative log10 scale, so that one unit is a factor of ten) is 6.00 to 10.00. On to `CN1C(=O)[C@@H](NC(=O)c2nn(Cc3cocn3)cc2F)COc2cccnc21` [Example 209, (S)-4-fluoro-N-(5-methyl-4-oxo-2,3,4,5-tetrahydropyrido[3,2-b][1,4]oxazepin-3-yl)-1-(oxazol-4-ylmethyl)-1H-pyrazole-3-carboxamide], for which the pIC50 was 6.00 to 10.00.

In the case of `CN1C(=O)[C@@H](NC(=O)c2cc(Cc3ccccc3)[nH]n2)[C@H]2C[C@H]2c2cccnc21` [Example 80A, 5-benzyl-N-((1aS,2S,8bR)-4-methyl-3-oxo-1,1a,2,3,4,8b-hexahydrocyclopropa[d]pyrido[2,3-b]azepin-2-yl)-1H-pyrazole-3-carboxamide], the negative-log IC50 (pIC50) is 6.00 to 10.00.

`CN1C(=O)[C@@H](NC(=O)c2cc(Cc3ccccc3)[nH]n2)[C@H]2C[C@H]2c2ccccc21` [Example 60A, 5-benzyl-N-((1aS,2S,8bR)-4-methyl-3-oxo-1,1a,2,3,4,8b-hexahydrobenzo[b]cyclopropa[d]azepin-2-yl)-1H-pyrazole-3-carboxamide]: the negative-log IC50 (pIC50) is 6.00 to 10.00. Still for that read-out and setting: with `O=C(N[C@@H]1C(=O)Nc2c(F)cc(F)cc2[C@@H]2C[C@H]12)c1nnc(Cc2ccccc2)o1` [Example 89B, 5-benzyl-N-((1aS,2S,8bR)-5,7-difluoro-3-oxo-1,1a,2,3,4,8b-hexahydrobenzo[b]cyclopropa[d]azepin-2-yl)-1,3,4-oxadiazole-2-carboxamide] the figure was 6.00 to 10.00.

As for `CN1C(=O)[C@@H](NC(=O)c2cc(Cc3ccccc3)on2)CCc2sc(Cl)cc21` (stereo in doubt) [Example 1A, 5-Benzyl-N-(2-chloro-4-methyl-5-oxo-4H,5H,6H,7H,8H-thieno[3,2-b]azepin-6-yl)-1,2-oxazole-3-carboxamide], the negative-log IC50 (pIC50) was 6.00 to 10.00. Take `CN1C(=O)[C@@H](NC(=O)c2nnc(Cc3ccccc3)[nH]2)C[C@@H](F)c2ccccc21` (mixture of isomers) [Example 11, 5-benzyl-N-((3S,5R)-5-fluoro-1-methyl-2-oxo-2,3,4,5-tetrahydro-1H-benzo[b]azepin-3-yl)-4H-1,2,4-triazole-3-carboxamide and 5-benzyl-N-((3R,5S)-5-fluoro-1-methyl-2-oxo-2,3,4,5-tetrahydro-1H-benzo[b]azepin-3-yl)-4H-1,2,4-triazole-3-carboxamide]: the pIC50 is 6.00 to 10.00.

On to `O=C(N[C@@H]1C(=O)Nc2c(F)cc(F)cc2[C@@H]2C[C@H]12)c1cn(Cc2ccccc2)nn1` [Example 90B, 1-benzyl-N-((1aS,2S,8bR)-5,7-difluoro-3-oxo-1,1a,2,3,4,8b-hexahydrobenzo[b]cyclopropa[d]azepin-2-yl)-1H-1,2,3-triazole-4-carboxamide], for which the negative-log IC50 (pIC50) is 6.00 to 10.00.

Regarding `[2H]C([2H])([2H])N1C(=O)[C@@H](NC(=O)c2nnc(C3(c4ccccc4)CC3)o2)COc2cccnc21` [Example 173, (S)—N-(5-trideuteriomethyl-4-oxo-2,3,4,5-tetrahydropyrido[3,2-b][1,4]oxazepin-3-yl)-5-(1-phenylcyclopropyl)-1,3,4-oxadiazole-2-carboxamide], the pIC50 was 6.00 to 10.00. With `CN1C(=O)[C@@H](NC(=O)c2cc(Cc3ccccc3)on2)[C@H]2C[C@H]2c2cccnc21` [Example 81A, 5-benzyl-N-((1aS,2S,8bR)-4-methyl-3-oxo-1,1a,2,3,4,8b-hexahydrocyclopropa[d]pyrido[2,3-b]azepin-2-yl)isoxazole-3-carboxamide], the negative-log IC50 (pIC50) is 6.00 to 10.00. For `C[C@H]1Oc2cccnc2N(C)C(=O)[C@H]1NC(=O)c1noc(Cc2ccccc2)n1` [Example 222, 5-benzyl-N-((2R,3S)-2,5-dimethyl-4-oxo-2,3,4,5-tetrahydropyrido[3,2-b][1,4]oxazepin-3-yl)-1,2,4-oxadiazole-3-carboxamide], the pIC50 was 6.00 to 10.00. As to `CN1C(=O)[C@@H](NC(=O)c2cc(C3(c4ccccc4)CC3)[nH]n2)COc2ccccc21` [Example 72, (S)—N-(5-methyl-4-oxo-2,3,4,5-tetrahydrobenzo[b][1,4]oxazepin-3-yl)-5-(1-phenylcyclopropyl)-1H-pyrazole-3-carboxamide], the pIC50 is 6.00 to 10.00.

As to `CN1C(=O)[C@@H](NC(=O)c2noc(Cc3ccccc3)n2)COc2cccnc21` [Example 215, (S)-5-benzyl-N-(5-methyl-4-oxo-2,3,4,5-tetrahydropyrido[3,2-b][1,4]oxazepin-3-yl)-1,2,4-oxadiazole-3-carboxamide], the pIC50 is 6.00 to 10.00.

Take `CN1C(=O)[C@@H](NC(=O)c2cc(Cc3ccccc3)[nH]n2)CC2(CC2)c2ccccc21` [Example 59, 5-benzyl-N-[(3S)-1-methyl-2-oxo-1,2,3,4-tetrahydrospiro[1-benzazepine-5,1-cyclopropane]-3-yl]-1H-pyrazole-3-carboxamide]: the pIC50 was 6.00 to 10.00. For the compound `CN1C(=O)[C@@H](NC(=O)c2ncc(Cc3ccccc3)s2)COc2ccccc21` [Example 5, (S)-5-benzyl-N-(5-methyl-4-oxo-2,3,4,5-tetrahydrobenzo[b][1,4]oxazepin-3-yl)thiazole-2-carboxamide], the pIC50 is 6.00 to 10.00. On the same count and under the same terms, with `CN1C(=O)C(NC(=O)c2cc(Cc3ccccc3)on2)CC(F)c2ccccc21` (stereo not drawn) [Example 2, 5-benzyl-N-(5-fluoro-1-methyl-2-oxo-2,3,4,5-tetrahydro-1H-benzo[b]azepin-3-yl)isoxazole-3-carboxamide] the figure was 6.00 to 10.00. On the same count and under the same terms, the same measure for `COc1cccc(Cn2cc(F)c(C(=O)N[C@H]3COc4ccccc4N(C)C3=O)n2)n1` [Example 220, (S)-4-fluoro-1-((6-methoxypyridin-2-yl)methyl)-N-(5-methyl-4-oxo-2,3,4,5-tetrahydrobenzo[b][1,4]oxazepin-3-yl)-1H-pyrazole-3-carboxamide]: 6.00 to 10.00.

For `CN1C(=O)[C@@H](NC(=O)c2nnc(Cc3ccccc3)s2)COc2cccnc21` [Example 85, (S)-5-benzyl-N-(5-methyl-4-oxo-2,3,4,5-tetrahydropyrido[3,2-b][1,4]oxazepin-3-yl)-1,3,4-thiadiazole-2-carboxamide], the pIC50 was 6.00 to 10.00.

Take `CN1C(=O)[C@@H](NC(=O)c2ncc(Cc3cccc(C#N)c3)s2)CCc2cccnc21` [Example 219, (S)-5-(3-cyanobenzyl)-N-(9-methyl-8-oxo-6,7,8,9-tetrahydro-5H-pyrido[2,3-b]azepin-7-yl)thiazole-2-carboxamide]: the pIC50 is 6.00 to 10.00.

On to `CN1C(=O)[C@@H](NC(=O)c2coc(C3(c4ccccc4)CC3)n2)COc2ccccc21` [Example 61, (S)—N-(5-methyl-4-oxo-2,3,4,5-tetrahydrobenzo[b][1,4]oxazepin-3-yl)-2-(1-phenylcyclopropyl)oxazole-4-carboxamide], for which the pIC50 was 6.00 to 10.00.

Still in this assay, the particulars now being: TNFα 10 ng/mL, 48 h; read-out: Cell IC50.
As for `CN1C(=O)[C@@H](NC(=O)c2nnc([C@H]3CCc4ccccc43)[nH]2)COc2cccnc21` [Example 54B, 5-((S)-2,3-dihydro-1H-inden-1-yl)-N—((S)-5-methyl-4-oxo-2,3,4,5-tetrahydropyrido[3,2-b][1,4]oxazepin-3-yl)-4H-1,2,4-triazole-3-carboxamide], the pIC50 was 6.00 to 10.00.
